This note sets out measurements from patent publication US11174264B2, “TYK2 inhibitors and uses thereof” (Nimbus Lakshmi, Inc., priority 2019, dated 2021).

In experiment [1] the target is human TYK2 (JH2domain-pseudokinase) (Homo sapiens (Human), UniProt P29597). The experiment can be described thus: TYK2 JH2 Domain Binding Assay (KINOMEscan). The following applies: read-out: hTYK2_JH2_Binding (Kd). As to the method: Binding constants for compounds of the present invention against the JH2 domain were determined by the following protocol for a KINOMEscan® assay (DiscoveRx). A fusion protein of a partial length construct of human TYK2 (JH2domain-pseudokinase) (amino acids G556 to D888 based on reference sequence NP_003322.3) and the DNA binding domain of NFkB was expressed in transiently transfected HEK293 cells. From these HEK 293 cells, extracts were prepared in M-PER extraction buffer (Pierce) in the presence of Protease Inhibitor Cocktail Complete (Roche) and Phosphatase Inhibitor Cocktail Set II (Merck) per manufacturers' instructions. The TYK2 (JH2domain-pseudokinase) fusion protein was labeled with a chimeric double-stranded DNA tag containing the NFkB binding site (5′-[…]-3′) fused to an amplicon for qPCR readout, which was added directly to the expression extract (the final concentration of DNA-tag in the binding reaction is 0.1 nM).
Sequence of human TYK2 (JH2domain-pseudokinase) (P29597 556-888): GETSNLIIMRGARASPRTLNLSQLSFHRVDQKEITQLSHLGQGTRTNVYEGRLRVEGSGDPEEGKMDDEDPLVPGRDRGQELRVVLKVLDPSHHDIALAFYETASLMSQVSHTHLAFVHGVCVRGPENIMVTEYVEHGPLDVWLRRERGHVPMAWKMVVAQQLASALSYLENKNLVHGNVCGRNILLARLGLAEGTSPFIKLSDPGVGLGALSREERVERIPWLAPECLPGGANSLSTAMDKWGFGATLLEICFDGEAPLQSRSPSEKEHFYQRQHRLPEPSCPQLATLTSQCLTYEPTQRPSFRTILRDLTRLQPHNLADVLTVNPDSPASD
The liganded beads were blocked with excess biotin and washed with blocking buffer (SeaBlock (Pierce), 1% BSA, 0.05% Tween 20, 1 mM DTT) to remove unbound ligand and to reduce nonspecific binding.
Extracts were used directly in binding assays without any enzyme purification steps at a ≥10,000-fold overall stock dilution (final DNA-tagged enzyme concentration <0.1 nM). Extracts were loaded with DNA-tag and diluted into the binding reaction in a two step process. First extracts were diluted 1:100 in 1× binding buffer (PBS/0.05% Tween 20/10 mM DTT/0.1% BSA/2 μg/ml sonicated salmon sperm DNA) containing 10 nM DNA-tag. This dilution was allowed to equilibrate at room temperature for 15 minutes and then subsequently diluted 1:100 in 1× binding buffer. […] Kds were determined using an 11-point 3-fold compound dilution series with three DMSO control points. […] The compounds were then diluted directly into the assays such that the final concentration of DMSO was 0.9%. All reactions performed in polypropylene 384-well plates. Each was a final volume of 0.02 mL. Assays were incubated with shaking for 1 hour at room temperature. Then the beads were pelleted and washed with wash buffer (1×PBS, 0.05% Tween 20) to remove displaced kinase and test compound. […] The qPCR protocol consisted of a 10 minute hot start at 95° C., followed by 35 cycles of 95° C. for 15 seconds, 60° C. for 1 minute.
The compounds were then diluted directly into the assays such that the final concentration of DMSO was 0.9%. […] Kd measurements were performed in duplicate.
Binding constants (Kd values) were calculated with a standard dose-response curve using the Hill equation: […]
The Hill Slope was set to −1.

Experiment [2] has as its system IL-12 induced STAT4 phophorylation mediated by Tyk2/JAK2 (heterodimeric complex). The experiment can be described thus: IL-12 Induced pSTAT4 in Human PBMC. The following applies: for inhibition at 0.05 µM: Homo sapiens, PBMC, 1.7 ng/mL IL-12, read-out: PBMC_IL-12-pSTAT4 (% Inhibition_Average_@0.05 uM) [%]; for IC50: 1.7 ng/mL IL-12, read-out: PBMC_IL-12-pSTAT4 (IC50). It counts as cell-based. As to the method: Human PBMC are isolated from buffy coat and are stored frozen for assays as needed. […] 15 μl of compound or DMSO is added to the well at the desired concentrations and incubated at 1 hr at 37° C. 15 μl of stimulus (final concentration of 1.7 ng/mL IL-12) is added for 30 minutes prior to pSTAT4 and total STAT4 analysis using cell lysates prepared and analyzed by MSD reagents as per manufacturer protocol. The final DMSO concentration of compound in the assay is 0.1%.
The IL-12 Induced pSTAT4 assay evaluates the inhibition of IL-12 induced STAT4 phophorylation mediated by Tyk2/JAK2 (heterodimeric complex).

In another experiment the target is JAK1 kinase domain (Homo sapiens (Human), UniProt P23458). Kind of experiment: JAK1 Radioactive Kinase Assay. It counts as biochemical. Particulars: 10 μM compound. The source says:
(§1) Similar assays were run to measure the percent inhibition at the JAK1 and JAK3 kinase domains.

Another experiment has as its target JAK2 kinase domain (JH1) (Homo sapiens (Human), UniProt O60674). The experiment can be described thus: JAK2 Radioactive Kinase Assay. Format: biochemical. Particulars: 10 μM compound, ATP at 10 μM. The method, then:
The Tyk2 and JAK2 radioactive kinase assay measures the percent inhibition at the Tyk2 kinase domain (JH1) and the percent inhibition at the JAK2 kinase domain (JH1). Results of the assay are expressed as percent inhibition at 10 μM.

Another experiment deals with JAK3 kinase domain (Homo sapiens (Human), UniProt P52333). The experiment can be described thus: JAK3 Radioactive Kinase Assay. It counts as biochemical. Particulars: 10 μM compound.
Sequence of JAK3 kinase domain (P52333 822-1111): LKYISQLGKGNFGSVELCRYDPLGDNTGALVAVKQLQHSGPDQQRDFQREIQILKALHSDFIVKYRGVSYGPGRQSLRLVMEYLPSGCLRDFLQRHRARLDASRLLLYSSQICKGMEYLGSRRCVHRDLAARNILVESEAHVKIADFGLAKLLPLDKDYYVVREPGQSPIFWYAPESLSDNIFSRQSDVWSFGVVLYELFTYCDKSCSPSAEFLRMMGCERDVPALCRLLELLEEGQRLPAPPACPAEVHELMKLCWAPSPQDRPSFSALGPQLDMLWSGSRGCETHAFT
From the text: as §1

Sequence of JAK1 kinase domain (P23458 875-1153): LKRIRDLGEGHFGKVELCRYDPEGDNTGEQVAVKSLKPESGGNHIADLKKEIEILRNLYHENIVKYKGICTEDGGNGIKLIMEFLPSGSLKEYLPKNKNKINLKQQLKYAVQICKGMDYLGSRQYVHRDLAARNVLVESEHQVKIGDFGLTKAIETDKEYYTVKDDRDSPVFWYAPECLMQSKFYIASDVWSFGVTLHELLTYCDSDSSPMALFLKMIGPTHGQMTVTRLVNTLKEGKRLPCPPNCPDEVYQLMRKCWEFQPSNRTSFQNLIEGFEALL
Sequence of JAK2 kinase domain (JH1) (O60674 849-1124): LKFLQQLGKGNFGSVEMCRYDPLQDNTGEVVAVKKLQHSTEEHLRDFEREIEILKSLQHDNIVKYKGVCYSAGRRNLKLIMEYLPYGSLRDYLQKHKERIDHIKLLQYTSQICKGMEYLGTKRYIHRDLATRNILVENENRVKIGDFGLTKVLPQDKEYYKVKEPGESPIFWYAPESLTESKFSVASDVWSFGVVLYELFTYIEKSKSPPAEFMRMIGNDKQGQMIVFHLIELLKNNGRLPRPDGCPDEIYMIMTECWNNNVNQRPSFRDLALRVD

The Kd is the concentration at which binding is half-saturated. As for `CNc1cc(-c2cn(C3CCOCC3)c3ncccc23)nn2c(C(=O)N[C@H]3CC[C@H]3O)cnc12` [Compound I-11, N-((1S,2R)-2-hydroxycyclobutyl)-8-(methylamino)-6-(1-(tetrahydro-2H-pyran-4-yl)-1H-pyrrolo[2,3-b]pyridin-3-yl)imidazo[1,2-b]pyridazine-3-carboxamide], the Kd in experiment [1] is less than 0.2 nM. In addition, the inhibition at 0.05 µM in experiment [2] (0.05 μM compound) was 70 to 90%.
Broadly, the IC50 is the concentration that inhibits the measured activity by half. For `CNc1cc(-c2cn(C(C)C)c3ncccc23)nn2c(C(=O)N[C@H]3CC[C@H]3O)cnc12` (racemic) [Compound I-15, N-(2-hydroxycyclobutyl)-6-(1-isopropyl-1H-pyrrolo[2,3-b]pyridin-3-yl)-8-(methylamino)imidazo[1,2-b]pyridazine-3-carboxamide], the “JAK1_IC50_RB (% INH_@_10 uM) at 10.0 uM [% INH]” value on JAK1 kinase domain is recorded as “A (had a percent inhibition at 10 μM lower than 50)”. Besides, the “JAK2_IC50_RB (% INH_@_10 uM) at 10.0 uM [% INH]” value at JAK2 kinase domain (JH1) was “A (had a percent inhibition at 10 μM lower than 50)”. In addition, the Kd in experiment [1] was less than 0.2 nM. The IC50 in experiment [2] is less than 100 nM. Also, the “PBMC_IL-12-pSTAT4 (% Inhibition_Average_@0.05 uM) [%]” value in experiment [2] (0.05 μM compound, 1.7 ng/mL IL-12) was “** (had a percent inhibition at 0.05 μM between 50 and 70)”. Also, at JAK3 kinase domain, the “JAK3_IC50_RB (% INH_@_10 uM) at 10.0 uM [% INH]” value was “A (had a percent inhibition at 10 μM lower than 50)”.
As for `CNc1cc(-c2cn(C3CCOCC3)c3ncccc23)nn2c(C(=O)N[C@@H]3CC[C@@H]3O)cnc12` [Compound I-8, N-((1R,2S)-2-hydroxycyclobutyl)-8-(methylamino)-6-(1-(tetrahydro-2H-pyran-4-yl)-1H-pyrrolo[2,3-b]pyridin-3-yl)imidazo[1,2-b]pyridazine-3-carboxamide], in experiment [1], the Kd was less than 0.2 nM.
Turning to `CNc1cc(-c2cn(CCN3CCOCC3)c3ncccc23)nn2c(C(=O)N[C@@H]3CC[C@@H]3O)cnc12` [Compound I-9, N-((1R,2S)-2-hydroxycyclobutyl)-8-(methylamino)-6-(1-(2-morpholinoethyl)-1H-pyrrol[2,3-b]pyridin-3-yl)imidazo[1,2-b]pyridazine-3-carboxamide], the inhibition at 10 µM at JAK1 kinase domain (read-out: JAK1_IC50_RB (% INH_@_10 uM) at 10.0 uM [% INH]), at JAK2 kinase domain (JH1) (read-out: JAK2_IC50_RB (% INH_@_10 uM) at 10.0 uM [% INH]) and on JAK3 kinase domain (read-out: JAK3_IC50_RB (% INH_@_10 uM) at 10.0 uM [% INH]) was less than 50% throughout. For the same compound, the Kd in experiment [1] fell in the range of 0.2 to 1 nM.
Consider `CNc1cc(-c2cn(C(C)C)c3ncccc23)nn2c(C(=O)N[C@H]3COC[C@H]3O)cnc12` [Compound I-14, N-((3S,4S)-4-hydroxytetrahydrofuran-3-yl)-6-(1-isopropyl-1H-pyrrolo[2,3-b]pyridin-3-yl)-8-(methylamino)imidazo[1,2-b]pyridazine-3-carboxamide], for which, in experiment [1], the Kd is less than 0.2 nM. Also, the inhibition at 0.05 µM in experiment [2] (0.05 μM compound) fell in the range of 70 to 90%.
Consider `CNc1cc(Nc2cccn(-c3ccc(C)nc3)c2=O)nn2c(C(=O)N[C@H]3CC[C@@H]3OC)cnc12` (stereo in doubt) [Compound I-19, N-(2-methoxycyclobutyl)-6-((6′-methyl-2-oxo-2H-[1,3′-bipyridin]-3-yl)amino)-8-(methylamino)imidazo[1,2-b]pyridazine-3-carboxamide], for which, in experiment [1], the Kd was less than 0.2 nM. Also, in experiment [2], the IC50 is less than 100 nM. The inhibition at 0.05 µM in experiment [2] (0.05 μM compound) was 50 to 70%.
Regarding `CNc1cc(Nc2cccn([C@H]3CC[C@H](OC)CC3)c2=O)nn2c(C(=O)N[C@H]3CC[C@@H]3OC)cnc12` (racemic) [Compound I-21, N-(2-methoxycyclobutyl)-6-((1-((1r,4S)-4-methoxycyclohexyl)-2-oxo-1,2-dihydropyridin-3-yl)amino)-8-(methylamino)imidazo[1,2-b]pyridazine-3-carboxamide], in experiment [1], the Kd was less than 0.2 nM. In addition, the IC50 in experiment [2] is less than 100 nM. In addition, the inhibition at 0.05 µM in experiment [2] (0.05 μM compound) is more than 90%.
On to `CNc1cc(Nc2cccn([C@H]3C[C@H](OC)C3)c2=O)nn2c(C(=O)N[C@H]3CC[C@@H]3OC)cnc12` (racemic) [Compound I-23, N-((1S,2S)-2-methoxycyclobutyl)-6-((1-((1r,3S)-3-methoxycyclobutyl)-2-oxo-1,2-dihydropyridin-3-yl)amino)-8-(methylamino)imidazo[1,2-b]pyridazine-3-carboxamide], for which the Kd in experiment [1] is less than 0.2 nM. Further, in experiment [2], the IC50 was less than 100 nM. Moreover, in experiment [2] (0.05 μM compound), the inhibition at 0.05 µM lay in the range of 70 to 90%.
In the case of `CNc1cc(Nc2cccn(C3CCOCC3)c2=O)nn2c(C(=O)N[C@H]3CC[C@@H]3OC)cnc12` (stereo in doubt) [Compound I-20, N-(2-methoxycyclobutyl)-8-(methylamino)-6-((2-oxo-1-(tetrahydro-2H-pyran-4-yl)-1,2-dihydropyridin-3-yl)amino)imidazo[1,2-b]pyridazine-3-carboxamide], the Kd in experiment [1] is less than 0.2 nM. For the same compound, in experiment [2], the IC50 was less than 100 nM. Besides, the inhibition at 0.05 µM in experiment [2] (0.05 μM compound) lay within 70 to 90%.
Take `CNc1cc(-c2cn(C(C)C)c3ncccc23)nn2c(C(=O)N[C@@H]3COC[C@@H]3O)cnc12` [Compound I-13, N-((3R,4R)-4-hydroxytetrahydrofuran-3-yl)-6-(1-isopropyl-1H-pyrrolo[2,3-b]pyridin-3-yl)-8-(methylamino)imidazo[1,2-b]pyridazine-3-carboxamide]: the Kd in experiment [1] was 0.2 to 1 nM.
Take `CNc1cc(Nc2cccn(-c3ccccn3)c2=O)nn2c(C(=O)N[C@H]3CC[C@@H]3OC)cnc12` (stereo in doubt) [Compound I-18, N-(2-methoxycyclobutyl)-8-(methylamino)-6-((2-oxo-2H-[1,2′-bipyridin]-3-yl)amino)imidazo[1,2-b]pyridazine-3-carboxamide]: the dissociation constant (Kd) in experiment [1] is less than 0.2 nM. The IC50 in experiment [2] is less than 100 nM. For the same compound, the inhibition at 0.05 µM in experiment [2] (0.05 μM compound) fell in the range of 70 to 90%.
The corresponding values for `CNc1cc(Nc2cccn(-c3ncccc3F)c2=O)nn2c(C(=O)N[C@H]3CC[C@@H]3OC)cnc12` (stereo in doubt) [Compound I-17, 6-((3′-fluoro-2-oxo-2H-[1,2′-bipyridin]-3-yl)amino)-N-(2-methoxycyclobutyl)-8-(methylamino)imidazo[1,2-b]pyridazine-3-carboxamide] are less than 0.2 nM, less than 100 nM and 50 to 70%.
Regarding `CNc1cc(Nc2cccn([C@H]3[C@@H]4COC[C@@H]43)c2=O)nn2c(C(=O)N[C@H]3CC[C@@H]3OC)cnc12` (racemic) [Compound I-22, 6-((1-((1R,5S,6r)-3-oxabicyclo[3.1.0]hexan-6-yl)-2-oxo-1,2-dihydropyridin-3-yl)amino)-N-(2-methoxycyclobutyl)-8-(methylamino)imidazo[1,2-b]pyridazine-3-carboxamide], the Kd in experiment [1] was less than 0.2 nM. Further, the IC50 in experiment [2] was less than 100 nM. For the same compound, in experiment [2] (0.05 μM compound), the inhibition at 0.05 µM fell in the range of 70 to 90%.
